Measured values from patent US20230295235A1, “COMPOUNDS TARGETING ALPHA4-BETA7 INTEGRIN” (ZEALAND PHARMA A/S, priority 2020, published 2023).

Molecular target: T1, (α4β7-negative Th memory cells) (Homo sapiens, UniProt P05556+P13612)
T1 construct: endogenous in cells; host or cells: human whole blood
Test: Competition assay: inhibition of biotinylated rhVCAM-1-Fc binding to α4β7-negative Th memory cells in whole blood (FACS receptor occupancy)
Assay type: cell-based
Conditions: single donor, 4 mM MnCl2, α4β7-negative Th memory cells, read-out: IC50, VCAM binding
Procedure: The compound of Example 1 was used in competition assay on CD4+ integrin α4+β7-|o memory T cells.
Receptor occupancy in primary cells was determined by measuring the amount of biotinylated human recombinant MAdCAM-1-Fc or human recombinant VCAM-1-Fc bound to selected cell populations using flow cytometry. Human recombinant MAdCAM-1-Fc or human recombinant VCAM-1-Fc (R&D systems) were biotinylated using commercially available reagents and protocol (Pierce).
Whole blood was collected from human donors in sodium heparin tubes. A volume of 100 µL of blood was incubated with the compound of Example 1 and 4 mM MnCl2 for 1 hour at room temperature. Cells were washed twice with 1 mL of 1X Dulbecco’s phosphate buffered saline (DPBS) calcium magnesium free (CMF) (ThermoFisher Scientific) and resuspended in 100 µL of DPBS CMF. […]
Fluorescence-activated cell sorting (FACS) data was acquired by electronic gating on the basis of forward versus side scatter. […] Cell population were determined using the following markers: CD45+, CD3+, CD4+,CD45RO+, CD49d+, integrin β7, biotinylated ligands.
Compound receptor occupancy was defined as the decrease in the number of integrin β7+ or integrin β7-lo cells binding biotinylated rhMAdCAM-1 or rhVCAM-1, respectively. Receptor occupancy was calculated with the following equation: […]

T1 sequence (P13612 34-1032): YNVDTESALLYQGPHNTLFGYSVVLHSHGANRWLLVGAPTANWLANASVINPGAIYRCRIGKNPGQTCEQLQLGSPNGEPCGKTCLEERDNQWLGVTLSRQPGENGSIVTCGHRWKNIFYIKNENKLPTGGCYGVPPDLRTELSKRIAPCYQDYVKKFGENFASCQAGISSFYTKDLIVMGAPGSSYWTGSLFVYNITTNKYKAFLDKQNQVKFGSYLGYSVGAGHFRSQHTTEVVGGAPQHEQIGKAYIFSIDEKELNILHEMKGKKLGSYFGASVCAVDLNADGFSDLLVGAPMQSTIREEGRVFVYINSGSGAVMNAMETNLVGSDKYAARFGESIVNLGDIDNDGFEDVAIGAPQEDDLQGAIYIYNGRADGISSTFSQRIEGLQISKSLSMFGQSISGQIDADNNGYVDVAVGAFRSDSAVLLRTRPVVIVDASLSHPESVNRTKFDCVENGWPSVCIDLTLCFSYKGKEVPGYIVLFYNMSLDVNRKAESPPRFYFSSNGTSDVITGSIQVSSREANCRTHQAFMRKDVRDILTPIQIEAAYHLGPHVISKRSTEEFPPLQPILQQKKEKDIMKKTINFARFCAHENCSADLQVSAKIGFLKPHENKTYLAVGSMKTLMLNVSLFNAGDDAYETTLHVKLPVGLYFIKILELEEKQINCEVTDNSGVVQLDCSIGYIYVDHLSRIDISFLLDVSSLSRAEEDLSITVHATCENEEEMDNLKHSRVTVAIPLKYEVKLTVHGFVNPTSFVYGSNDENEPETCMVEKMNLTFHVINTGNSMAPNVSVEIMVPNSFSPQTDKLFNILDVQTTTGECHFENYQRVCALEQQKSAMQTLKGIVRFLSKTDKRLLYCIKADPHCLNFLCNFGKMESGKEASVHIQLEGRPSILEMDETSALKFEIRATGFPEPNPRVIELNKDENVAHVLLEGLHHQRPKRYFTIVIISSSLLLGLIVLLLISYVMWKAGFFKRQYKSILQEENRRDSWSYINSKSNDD
T1 sequence (P05556 21-798): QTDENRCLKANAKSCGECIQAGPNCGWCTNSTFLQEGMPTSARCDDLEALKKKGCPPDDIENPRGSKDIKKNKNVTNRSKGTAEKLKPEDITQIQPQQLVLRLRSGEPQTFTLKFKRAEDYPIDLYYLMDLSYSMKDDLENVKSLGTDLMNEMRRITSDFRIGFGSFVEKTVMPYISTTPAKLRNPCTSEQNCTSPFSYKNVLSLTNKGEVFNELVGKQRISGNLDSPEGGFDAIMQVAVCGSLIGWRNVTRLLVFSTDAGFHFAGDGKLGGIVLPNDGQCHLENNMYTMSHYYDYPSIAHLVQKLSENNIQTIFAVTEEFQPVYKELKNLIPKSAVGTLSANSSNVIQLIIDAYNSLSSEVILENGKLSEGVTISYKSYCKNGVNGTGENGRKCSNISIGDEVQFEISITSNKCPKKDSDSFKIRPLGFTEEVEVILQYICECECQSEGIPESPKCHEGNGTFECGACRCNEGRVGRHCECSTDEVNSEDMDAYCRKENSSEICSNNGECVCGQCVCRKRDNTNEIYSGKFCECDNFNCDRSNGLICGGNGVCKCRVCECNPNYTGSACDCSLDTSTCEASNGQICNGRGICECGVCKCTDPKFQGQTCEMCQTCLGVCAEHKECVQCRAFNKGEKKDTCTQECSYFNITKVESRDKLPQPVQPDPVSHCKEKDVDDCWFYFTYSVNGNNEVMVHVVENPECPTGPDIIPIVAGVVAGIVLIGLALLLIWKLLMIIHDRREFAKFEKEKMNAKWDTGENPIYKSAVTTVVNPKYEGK

CC(C)C[C@@H]1NC(=O)c2ccc(-c3ccc(N4CCN(C(=O)c5ccccc5-c5ccccc5C(=O)N5CCN(c6ccc(-c7ccc8cc7CNC(=O)[C@@H]7CCCN7[C@H](C(=O)NC(C)(C)C)[C@H](C)NC(=O)[C@H]([C@@H](C)O)NC(=O)[C@H](CC(=O)O)NC(=O)[C@H](CC(C)C)NC8=O)cc6)CC5)CC4)cc3)c(c2)CNC(=O)[C@@H]2CCCN2[C@H](C(=O)NC(C)(C)C)[C@H](C)NC(=O)[C@H]([C@@H](C)O)NC(=O)[C@H](CC(=O)O)NC1=O [Example 1, 2,2′-((S,S,S,S,S,S,1^2,8S,11S,14S,17S,18S)-((([1,1′-Biphenyl]-2,2′-Dicarbonyl)-Bis(Piperazine-4,1-Diyl))Bis(4,1-Phenylene))Bis(18-(Tert-Butylcarbamoyl)-14-((R)-1-Hydroxyethyl)-8-Isobutyl-17-Methyl-2,6,9,12,15-Pentaoxo-3,7,10,13,16-Pentaaza-1(2,1)-Pyrrolidina-5(1,3)-Benzenacyclooctadecaphane-5^6,11-Diyl))-Diacetic Acid]
IC50: ~600 nM
